Results: paper PMC11280037, “Inhibition of Enzyme and Bacteria Activities in Diabetic Ulcer-like Scenarios via WAAPV-Loaded Electrospun Fibers” (Pharmaceutics, 2024)
Read-outs that look alike come from different tables or passages of the source. Where a SMILES comes first, the peptide text is derived from it. Where no end group is shown, it is not given here.

Legend:
[1] = tested on: human neutrophil elastase (HNE; elastase from human leukocytes); settings: 1 h, 37 °C, 405 nm, n = 3, cited from earlier work
Protocol: Table 1 Inhibition of HNE activity by AAPV [8] and WAAPV at varying concentrations (n = 3). | column: HNE Inhibition (%) / AAPV || AAPV presented its maximum inhibitory capacity at a concentration of 50 μg/mL, which is in accordance with previous research conducted by our team. According to Namjoshi et al., the ability of HNE to digest substrates decreases with increasing inhibitor concentrations. […] Suc ...

[2] = tested on: S. aureus; settings: loaded at the core of co-axial microfibers; cited from earlier work
Protocol: From the very first moments of incubation, PEG-containing fibers were the ones reporting the highest bacterial inhibitions, a minimum of ≈30% against S. aureus and ≈40% against E. coli. […] In general, the highest ratings for peptide-induced inhibition (in many instances potentiated by PEG) were ...

[3] = tested on: bacteria; settings: effectiveness limited to concentrations over this; cited from earlier work
Description: Despite its efficacy, the widespread pharmaceutical application of peptides faces obstacles, including limited stability in physiological settings and susceptibility to environmental factors. However, AAPV’s overall hydrophilicity (despite the presence of hydrophobic domains) tends to reduce its bioavailability and cellular tissue permeability. The attachment of hydrophobic carriers/molecules can overcome these limitations. Tryptophan (W) is an aromatic hydrophobic amino acid, which has been associated with the activation of antibacterial properties (disturbance of bacterial membra ...

[4] = tested on: HNE; settings: AAPV from co-axial wet-spun microfibers; cited from earlier work
Protocol: During the first 6 h of incubation, nearly 10% of HNE was inhibited by the peptide released from the PCL fibers. This is consistent with the data from Figure 5 since, at this point, >50% of the peptide molecules have been released. In fact, in the absence of PEG, HNE inhibition reached its maximum at this stage, maintaining the levels of enzyme activity in a constant manner until the 24 h period. […] However, considering its hydrophobic nature and affinity towards PCL, it i ...

[5] = cited from earlier work
Description: Static contact angle measurements are a conventional method to determine the wettability of surfaces. This method involves assessing the angle formed between the solid surface, the liquid droplet, and the vapor phase at the three-phase contact point. […] Electrospun fibers unlo ...

[6] = tested on: human neutrophil elastase (HNE); experiment: HNE inhibition by peptide-loaded electrospun fibers; format: biochemical; settings: AAPV from PCL electrospun fibers, PBS, 37 °C
[7] = format: physicochemical
Protocol: Thermal responses of the fibers were assessed by a thermogravimetric analysis (TGA). Weight loss was monitored as the temperature increased from 25 to 600 °C at a heating rate of 10 °C/min under a dynamic nitrogen atmosphere with a flow rate of 200 mL/min, using an STA 7200 instrument (Hitachi®, Fukuoka, Japan) and aluminum pans. Results were plotted as the percentage of weight loss vs. temperature. Water contact angles were determined using an OCA 200 goniometer, Data Physics (Filderstadt, Germany), following an adaptation of the ASTM-[…]-08 standard. Droplets of 5.0 μL of dH2O, ejected at a rate of 2.0 μL/s, were used to measure the fibers' wettability via the sessile drop method. Six measurements were conducted per type of sample. Angles were recorded immediately after drop contact with the surface (≈10 s after contact).

[8] = format: physicochemical; settings: not told
Protocol: The fibers’ capacity for air exchange (permeability) was examined according to standard ISO 9237 [24]. Air pressure of 200 Pa was applied on three samples of each typology in three randomly selected points of 1.33 cm^2 (1.30 cm diameter), and the permeability was measured. For determining the porosity (P%) of the samples [25], measurements of the amount of ethanol absorbed after 1 h of immersion in static conditions and RT (Equation (1)) were used:(1) P(%)=Ww−WD/ρEthanolVSample×100, where WW and WD are the weight of the wet and dry samples, respectively; ρethanol is the density of the ethanol at RT (0.789 g/cm^3); and Vsample is the volume of the wet sample, determined by measuring the 6 mm diameter samples’ thickness with a pachymeter. The experiment was performed in triplicate.

[9] = tested on: Staphylococcus aureus ATCC 6538; format: cell-based; settings: ATCC 6538, 24 h
Protocol: Minimum inhibitory concentration (MIC) of both peptides and PEG was determined, against S. aureus and E. coli by the broth microdilution method, based on a publication by the Clinical and Laboratory Standards Institute (CLSI) and European Committee on Antimicrobial Susceptibility Testing (EUCAST). For this test, AAPV and WAAPV were dissolved in dH2O at a concentration of 4.096 mg/mL, whereas PEG was also diluted in dH2O at 10.240 mg/mL, working as stock solutions. […] Then, a bacterium suspension at 1 × 10^6 CFUs/mL was added to the wells. Controls consisting of MHB and bacteria suspensions free from any of the active agents were produced, representing the negative and positive control samples, respectively. Absorbance readings were conducted with an EZ Read 2000 Microplate Reader at 600 nm before (0 h) and 24 h after incubation at 37 °C at 120 rpm. MIC was then perceived by the differences between the several absorbance readings. Minimum bactericidal concentrations (MBCs) were established by the culture of the same bacterium suspensions at MIC and their vicinities (dilutions before and after MIC value). Aliquots were collected and diluted in PBS (10^−1–10^−4). Then, the aliquots were plated in TSA and incubated at 37 °C during 24 h, after which the grown colonies were observed and counted.

CC(C)[C@H](NC(=O)[C@@H]1CCCN1C(=O)[C@H](C)NC(=O)[C@H](C)N)C(=O)O (H-AAPV-OH)
main degradation step of free peptide: 200 °C

CC(C)[C@H](NC(=O)[C@@H]1CCCN1C(=O)[C@H](C)NC(=O)[C@H](C)N)C(=O)O [AAPV, alanine–alanine–proline–valine] (H-AAPV-OH)
HNE Inhibition ([1]; AAPV 0.10 μg/mL): 0.79 ± 0.008%
HNE Inhibition ([1]; AAPV 0.20 μg/mL): 2.37 ± 0.007%
HNE Inhibition ([1]; AAPV 0.39 μg/mL): 3.43 ± 0.005%
HNE Inhibition ([1]; AAPV 0.78 μg/mL): 4.07 ± 0.004%
HNE Inhibition ([1]; AAPV 1.56 μg/mL): 6.43 ± 0.005%
HNE Inhibition ([1]; AAPV 3.13 μg/mL): 8.07 ± 0.007%
HNE Inhibition ([1]; AAPV 6.25 μg/mL): 8.84 ± 0.002%
HNE Inhibition ([1]; AAPV 12.50 μg/mL): 9.56 ± 0.011%
HNE Inhibition ([1]; AAPV 25.00 μg/mL): 12.69 ± 0.002%
HNE Inhibition ([1]; AAPV 50.00 μg/mL): 16.89 ± 0.010%
HNE Inhibition ([1]; AAPV 100.00 μg/mL): 9.53 ± 0.010%
HNE Inhibition ([1]; AAPV 200.00 μg/mL, substrate N-MeO-Suc-Ala-Ala-Pro-Val-p-NA, 0.1 M Tris-HCl, HNE 45 mU): 5.74 ± 0.010%
S. aureus inhibitory activity [2]: found to potentiate this inhibitory activity against S. aureus
effective antimicrobial concentration [3]: over 2 mg/mL
time of maximum HNE inhibition [4]: 24 h
hydrophilicity of overall structure [5]: hydrophilic
time of maximum HNE inhibition [6]: 6 h

polycaprolactone [PCL]
mass loss before main degradation step [7]: < 4%
temperature at which (main) thermal degradation starts [7]: ≈ 370 °C
temperature range of main thermal degradation [7]: 370-435 °C
Air Permeability [8]: 0.523 ± 0.057 L/min

H-WAAPV-OH
main degradation step of free peptide: 200 °C

WAAPV [PCL + WAAPV]
mass loss before main degradation step [7]: < 4%
temperature at which (main) thermal degradation starts [7]: ≈ 365 °C

CC(C)[C@H](NC(=O)[C@@H]1CCCN1C(=O)[C@H](C)NC(=O)[C@H](C)N)C(=O)O [PCL + AAPV] (H-AAPV-OH)
mass loss before main degradation step [7]: ~8%
temperature at which (main) thermal degradation starts [7]: ≈ 335 °C

WAAPV [WAAPV]
MBC [9]: 2048 µg/mL
MIC [9]: 2048 µg/mL
